Results taken from the kinase profiling compilation of Christmann-Franck et al. (2016).

Columns and labels:
Assay in all cases: radiometric filter-binding kinase assay, Kinase HotSpot
Details in all cases: compound 0.5 µM; ATP 10 µM
[1] = biological target: MAPKAPK5 (human) (UniProt Q8IW41)
[2] = biological target: PDPK1 (human) (UniProt O15530)
[3] = biological target: AKT2 (human) (UniProt P31751)
[4] = biological target: CAMKK2 (human) (UniProt Q96RR4)
[5] = biological target: EPHA3 (human) (UniProt P29320)
[6] = biological target: YES1 (human) (UniProt P07947)
[7] = biological target: FLT3 (human) (UniProt P36888)
[8] = biological target: SIK2 (human) (UniProt Q9H0K1)
[9] = biological target: CAMKK1 (human) (UniProt Q8N5S9)
[10] = biological target: STK3 (human) (UniProt Q13188)
[11] = biological target: PDGFRA (human) (UniProt P16234)
[12] = biological target: ULK3 (human) (UniProt Q6PHR2)
[13] = biological target: MAP3K2 (human) (UniProt Q9Y2U5)
[14] = biological target: ADRBK1 (human) (UniProt P25098)
[15] = biological target: MARK1 (human) (UniProt Q9P0L2)
[16] = biological target: STK25 (human) (UniProt O00506)
[17] = biological target: EPHA5 (human) (UniProt P54756)
[18] = biological target: FYN (human) (UniProt P06241)
[19] = biological target: MAPK1 (human) (UniProt P28482)
[20] = biological target: EPHA7 (human) (UniProt Q15375)
[21] = biological target: GSK3A (human) (UniProt P49840)
[22] = biological target: GSG2 (human) (UniProt Q8TF76)
[23] = biological target: STK39 (human) (UniProt Q9UEW8)
[24] = biological target: AURKA (human) (UniProt O14965)
[25] = biological target: PAK3 (human) (UniProt O75914)
[26] = biological target: MUSK (human) (UniProt O15146)
[27] = biological target: GSK3B (human) (UniProt P49841)
[28] = biological target: CDK5 CDK5R1 p25 (human) (UniProt Q00535+Q15078)
[29] = biological target: ROCK1 (human) (UniProt Q13464)
[30] = biological target: LIMK1 (human) (UniProt P53667)
[31] = biological target: MAP3K7 TAB1 (human) (UniProt O43318+Q15750)
[32] = biological target: MST1R (human) (UniProt Q04912)
[33] = biological target: NEK7 (human) (UniProt Q8TDX7)
[34] = biological target: MAPKAPK3 (human) (UniProt Q16644)
[35] = biological target: HIPK3 (human) (UniProt Q9H422)
[36] = biological target: CAMK1G (human) (UniProt Q96NX5)
[37] = biological target: PKN1 (human) (UniProt Q16512)
[38] = biological target: RPS6KA4 KD2 (human) (UniProt O75676)
[39] = biological target: STK4 (human) (UniProt Q13043)
[40] = biological target: NEK9 (human) (UniProt Q8TD19)
[41] = biological target: CSF1R (human) (UniProt P07333)
[42] = biological target: EGFR (human) (UniProt P00533)

Sequence of MST1R (human) (Q04912 whole entry, looked up): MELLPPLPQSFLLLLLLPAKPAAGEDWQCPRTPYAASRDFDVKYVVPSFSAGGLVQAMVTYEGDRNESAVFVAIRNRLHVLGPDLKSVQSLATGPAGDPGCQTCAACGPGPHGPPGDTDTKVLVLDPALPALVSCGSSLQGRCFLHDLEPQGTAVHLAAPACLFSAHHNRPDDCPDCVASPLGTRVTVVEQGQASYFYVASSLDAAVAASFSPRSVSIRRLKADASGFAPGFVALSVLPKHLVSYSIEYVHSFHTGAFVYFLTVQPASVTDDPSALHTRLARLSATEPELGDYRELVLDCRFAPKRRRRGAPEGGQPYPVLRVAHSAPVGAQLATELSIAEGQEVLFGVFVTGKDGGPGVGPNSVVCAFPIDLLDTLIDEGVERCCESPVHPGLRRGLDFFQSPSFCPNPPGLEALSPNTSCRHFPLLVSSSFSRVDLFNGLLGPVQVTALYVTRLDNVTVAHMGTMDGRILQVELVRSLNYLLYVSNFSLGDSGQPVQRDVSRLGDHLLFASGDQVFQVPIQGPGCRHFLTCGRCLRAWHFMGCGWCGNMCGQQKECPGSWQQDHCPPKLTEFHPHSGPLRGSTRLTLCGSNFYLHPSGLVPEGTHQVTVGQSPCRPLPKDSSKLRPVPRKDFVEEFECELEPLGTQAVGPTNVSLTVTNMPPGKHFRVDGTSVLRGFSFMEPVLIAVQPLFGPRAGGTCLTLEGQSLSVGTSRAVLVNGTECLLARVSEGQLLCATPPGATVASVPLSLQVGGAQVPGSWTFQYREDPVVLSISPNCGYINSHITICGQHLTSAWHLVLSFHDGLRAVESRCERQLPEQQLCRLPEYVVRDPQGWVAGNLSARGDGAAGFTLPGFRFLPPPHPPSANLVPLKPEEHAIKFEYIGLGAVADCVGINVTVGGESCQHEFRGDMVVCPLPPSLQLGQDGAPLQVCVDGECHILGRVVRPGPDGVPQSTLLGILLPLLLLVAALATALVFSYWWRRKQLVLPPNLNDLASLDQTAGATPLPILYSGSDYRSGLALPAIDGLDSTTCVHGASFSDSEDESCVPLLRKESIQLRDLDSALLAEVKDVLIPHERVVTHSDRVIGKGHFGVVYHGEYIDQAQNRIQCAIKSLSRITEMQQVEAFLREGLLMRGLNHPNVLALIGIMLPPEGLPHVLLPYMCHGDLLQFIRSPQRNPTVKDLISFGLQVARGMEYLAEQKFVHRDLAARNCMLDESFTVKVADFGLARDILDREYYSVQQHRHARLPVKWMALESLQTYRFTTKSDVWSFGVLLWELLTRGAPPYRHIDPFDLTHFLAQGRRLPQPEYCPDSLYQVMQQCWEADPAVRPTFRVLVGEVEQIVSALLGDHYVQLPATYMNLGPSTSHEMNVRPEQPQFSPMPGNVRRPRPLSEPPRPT
Sequence of GSG2 (human) (Q8TF76 whole entry, looked up): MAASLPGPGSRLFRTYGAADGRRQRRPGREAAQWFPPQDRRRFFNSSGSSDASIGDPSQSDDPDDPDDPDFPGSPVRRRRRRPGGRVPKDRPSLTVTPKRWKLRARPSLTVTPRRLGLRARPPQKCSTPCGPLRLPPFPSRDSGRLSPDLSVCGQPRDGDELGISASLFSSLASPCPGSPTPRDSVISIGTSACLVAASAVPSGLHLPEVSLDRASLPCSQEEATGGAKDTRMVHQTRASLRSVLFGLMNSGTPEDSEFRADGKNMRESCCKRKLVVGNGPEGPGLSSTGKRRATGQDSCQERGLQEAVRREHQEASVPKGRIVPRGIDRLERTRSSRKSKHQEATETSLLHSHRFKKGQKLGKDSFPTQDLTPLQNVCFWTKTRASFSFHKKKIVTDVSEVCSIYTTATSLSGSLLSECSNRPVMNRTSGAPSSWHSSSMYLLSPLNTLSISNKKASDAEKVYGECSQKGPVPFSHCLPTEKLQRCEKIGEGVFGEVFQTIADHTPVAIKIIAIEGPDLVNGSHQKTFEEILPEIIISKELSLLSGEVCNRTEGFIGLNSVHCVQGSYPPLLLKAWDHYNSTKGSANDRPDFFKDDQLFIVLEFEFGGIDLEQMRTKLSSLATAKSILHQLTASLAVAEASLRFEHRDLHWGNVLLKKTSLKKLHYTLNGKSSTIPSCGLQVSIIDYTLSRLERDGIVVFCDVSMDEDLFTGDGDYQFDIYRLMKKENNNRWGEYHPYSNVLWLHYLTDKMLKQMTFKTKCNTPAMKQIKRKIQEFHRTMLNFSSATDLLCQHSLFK
Sequence of HIPK3 (human) (Q9H422 whole entry, looked up): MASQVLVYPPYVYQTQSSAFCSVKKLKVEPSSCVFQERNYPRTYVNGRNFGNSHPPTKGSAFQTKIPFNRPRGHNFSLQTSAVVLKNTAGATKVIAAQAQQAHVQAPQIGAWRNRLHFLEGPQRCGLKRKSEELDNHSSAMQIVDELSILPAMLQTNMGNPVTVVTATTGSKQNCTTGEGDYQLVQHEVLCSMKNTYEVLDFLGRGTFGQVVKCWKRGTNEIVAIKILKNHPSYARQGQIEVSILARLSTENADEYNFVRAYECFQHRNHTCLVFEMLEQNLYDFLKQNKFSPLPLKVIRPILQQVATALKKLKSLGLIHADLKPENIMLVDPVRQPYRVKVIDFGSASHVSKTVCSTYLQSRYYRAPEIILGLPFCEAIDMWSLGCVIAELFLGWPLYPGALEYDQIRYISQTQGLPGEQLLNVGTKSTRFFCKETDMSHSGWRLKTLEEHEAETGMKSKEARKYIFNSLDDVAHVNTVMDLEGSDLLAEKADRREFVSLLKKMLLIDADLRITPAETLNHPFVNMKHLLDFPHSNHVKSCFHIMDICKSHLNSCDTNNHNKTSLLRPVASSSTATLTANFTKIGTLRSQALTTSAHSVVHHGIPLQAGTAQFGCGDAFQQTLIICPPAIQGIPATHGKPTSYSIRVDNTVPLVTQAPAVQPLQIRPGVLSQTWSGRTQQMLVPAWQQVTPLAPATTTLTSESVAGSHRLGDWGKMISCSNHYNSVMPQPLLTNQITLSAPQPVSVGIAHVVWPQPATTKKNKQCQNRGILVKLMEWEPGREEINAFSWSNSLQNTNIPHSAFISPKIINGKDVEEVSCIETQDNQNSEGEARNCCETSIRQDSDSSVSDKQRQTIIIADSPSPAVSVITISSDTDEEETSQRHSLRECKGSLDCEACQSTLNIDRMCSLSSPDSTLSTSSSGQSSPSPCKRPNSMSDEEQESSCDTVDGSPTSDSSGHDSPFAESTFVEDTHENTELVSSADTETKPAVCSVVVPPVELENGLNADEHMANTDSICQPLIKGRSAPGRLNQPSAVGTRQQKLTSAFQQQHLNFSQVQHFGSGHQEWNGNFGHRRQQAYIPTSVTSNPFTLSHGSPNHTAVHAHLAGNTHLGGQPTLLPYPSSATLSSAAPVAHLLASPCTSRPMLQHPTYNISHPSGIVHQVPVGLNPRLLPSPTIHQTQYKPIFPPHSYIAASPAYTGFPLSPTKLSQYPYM
Sequence of STK4 (human) (Q13043 whole entry, looked up): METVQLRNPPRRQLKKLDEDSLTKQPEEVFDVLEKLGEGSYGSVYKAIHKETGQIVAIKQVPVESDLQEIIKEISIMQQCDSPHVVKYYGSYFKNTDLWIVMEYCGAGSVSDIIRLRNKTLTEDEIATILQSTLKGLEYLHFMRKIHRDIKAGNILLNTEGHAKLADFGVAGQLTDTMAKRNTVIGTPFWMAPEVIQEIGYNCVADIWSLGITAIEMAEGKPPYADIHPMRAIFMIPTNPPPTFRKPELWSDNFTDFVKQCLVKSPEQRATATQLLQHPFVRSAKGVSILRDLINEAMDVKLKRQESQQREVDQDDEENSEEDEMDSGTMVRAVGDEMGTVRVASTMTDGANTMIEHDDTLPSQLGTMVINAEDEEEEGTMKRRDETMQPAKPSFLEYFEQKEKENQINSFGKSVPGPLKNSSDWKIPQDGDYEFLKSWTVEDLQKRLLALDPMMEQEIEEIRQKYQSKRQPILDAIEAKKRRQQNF
Sequence of MAPKAPK3 (human) (Q16644 whole entry, looked up): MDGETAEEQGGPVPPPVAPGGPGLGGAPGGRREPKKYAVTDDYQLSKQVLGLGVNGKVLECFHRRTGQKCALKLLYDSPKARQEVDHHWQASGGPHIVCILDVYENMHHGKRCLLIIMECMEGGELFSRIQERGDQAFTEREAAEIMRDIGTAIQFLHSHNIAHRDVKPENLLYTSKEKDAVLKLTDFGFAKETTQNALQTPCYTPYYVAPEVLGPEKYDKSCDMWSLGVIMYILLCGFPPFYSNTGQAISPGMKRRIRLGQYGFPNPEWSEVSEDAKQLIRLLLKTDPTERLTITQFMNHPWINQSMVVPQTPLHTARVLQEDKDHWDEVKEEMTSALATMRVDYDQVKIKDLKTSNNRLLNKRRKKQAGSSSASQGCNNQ
Sequence of NEK7 (human) (Q8TDX7 whole entry, looked up): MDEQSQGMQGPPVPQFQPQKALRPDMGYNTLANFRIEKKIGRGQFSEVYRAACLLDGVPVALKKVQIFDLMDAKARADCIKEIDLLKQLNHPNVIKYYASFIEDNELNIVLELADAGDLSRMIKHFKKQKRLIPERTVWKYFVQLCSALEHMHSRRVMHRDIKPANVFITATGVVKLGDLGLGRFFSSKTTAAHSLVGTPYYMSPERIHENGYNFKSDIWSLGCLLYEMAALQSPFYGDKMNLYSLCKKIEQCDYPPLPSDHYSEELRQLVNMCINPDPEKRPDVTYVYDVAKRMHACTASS
Sequence of MAPKAPK5 (human) (Q8IW41 whole entry, looked up): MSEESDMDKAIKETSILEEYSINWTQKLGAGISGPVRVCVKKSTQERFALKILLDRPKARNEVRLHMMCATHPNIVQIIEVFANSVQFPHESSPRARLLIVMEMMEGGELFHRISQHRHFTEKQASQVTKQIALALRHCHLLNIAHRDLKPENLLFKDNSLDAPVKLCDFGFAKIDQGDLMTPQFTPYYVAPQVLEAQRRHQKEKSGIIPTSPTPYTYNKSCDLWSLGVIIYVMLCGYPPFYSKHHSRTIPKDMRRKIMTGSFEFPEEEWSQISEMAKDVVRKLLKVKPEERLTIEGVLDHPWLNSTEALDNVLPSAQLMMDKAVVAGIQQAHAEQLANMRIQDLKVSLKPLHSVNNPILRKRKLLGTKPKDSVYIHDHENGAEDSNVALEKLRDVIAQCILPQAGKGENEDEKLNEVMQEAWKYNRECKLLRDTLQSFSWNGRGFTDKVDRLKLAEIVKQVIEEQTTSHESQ

Structure (SMILES): CNC(=O)c1cc(Oc2ccc(NC(=O)Nc3ccc(Cl)c(C(F)(F)F)c3)cc2)ccn1
- residual activity [1]: 95.8%
- residual activity [2]: 95.8%
- residual activity [3]: 103%
- residual activity [4]: 103%
- residual activity [5]: 95.5%
- residual activity [6]: 82.8%
- residual activity [7]: 9.22%
- residual activity [8]: 102%
- residual activity [9]: 103%
- residual activity [10]: 96.9%
- residual activity [11]: 7.77%
- residual activity [12]: 103%
- residual activity [13]: 109%
- residual activity [14]: 112%
- residual activity [15]: 80.3%
- residual activity [16]: 104%
- residual activity [17]: 99.4%
- residual activity [18]: 91.6%
- residual activity [19]: 101%
- residual activity [20]: 80.7%
- residual activity [21]: 103%
- residual activity [22]: 99.3%
- residual activity [23]: 95.7%
- residual activity [24]: 103%
- residual activity [25]: 103%
- residual activity [26]: 101%
- residual activity [27]: 101%
- residual activity [28]: 97.2%
- residual activity [29]: 102%
- residual activity [30]: 76.8%
- residual activity [31]: 101%
- residual activity [32]: 97.6%
- residual activity [33]: 98.2%
- residual activity [34]: 100%
- residual activity [35]: 85.7%
- residual activity [36]: 107%
- residual activity [37]: 106%
- residual activity [38]: 97.7%
- residual activity [39]: 101%
- residual activity [40]: 95.4%

Structure (SMILES): CCN(CC)CCNC(=O)c1c(C)[nH]c(/C=C2\C(=O)Nc3ccc(F)cc32)c1C
- residual activity [1]: 82.7%
- residual activity [2]: 81.6%
- residual activity [4]: 65.3%
- residual activity [41]: 7.28%
- residual activity [5]: 84%
- residual activity [6]: 5.91%
- residual activity [7]: 2.71%
- residual activity [8]: 27.8%
- residual activity [9]: 52.1%
- residual activity [10]: 24.8%
- residual activity [11]: 10.9%
- residual activity [12]: 57.4%
- residual activity [13]: 51.9%
- residual activity [14]: 94.7%
- residual activity [15]: 40.9%
- residual activity [16]: 76.1%
- residual activity [17]: 87.6%
- residual activity [18]: 71.3%
- residual activity [19]: 98.5%
- residual activity [20]: 50.8%
- residual activity [21]: 85.5%
- residual activity [22]: 53.2%
- residual activity [23]: 87.4%
- residual activity [24]: 59.7%
- residual activity [26]: 51.3%
- residual activity [27]: 95.8%
- residual activity [29]: 99.7%
- residual activity [30]: 94.3%
- residual activity [31]: 18.6%
- residual activity [32]: 92%
- residual activity [33]: 93.5%
- residual activity [34]: 102%
- residual activity [35]: 47.3%
- residual activity [37]: 71.4%
- residual activity [38]: 50.8%
- residual activity [39]: 10.7%
- residual activity [40]: 100%

Structure (SMILES): COc1ccc2c(c[n+](C)c3c4cc5c(cc4ccc23)OCO5)c1OC
- residual activity [1]: 83.5%
- residual activity [2]: 98.2%
- residual activity [3]: 93.6%
- residual activity [4]: 98.2%
- residual activity [41]: 99%
- residual activity [5]: 94.9%
- residual activity [6]: 93.8%
- residual activity [7]: 76.9%
- residual activity [8]: 95.5%
- residual activity [9]: 101%
- residual activity [10]: 102%
- residual activity [42]: 99.6%
- residual activity [11]: 101%
- residual activity [13]: 99.8%
- residual activity [14]: 96.6%
- residual activity [15]: 91.4%
- residual activity [16]: 98.8%
- residual activity [17]: 94.6%
- residual activity [18]: 101%
- residual activity [19]: 101%
- residual activity [20]: 95.4%
- residual activity [21]: 105%
- residual activity [22]: 98.8%
- residual activity [23]: 90.8%
- residual activity [24]: 107%
- residual activity [25]: 96.6%
- residual activity [26]: 98.2%
- residual activity [27]: 88.3%
- residual activity [28]: 86.2%
- residual activity [29]: 99.4%
- residual activity [30]: 109%
- residual activity [31]: 100%
- residual activity [32]: 97.8%
- residual activity [33]: 98.9%
- residual activity [34]: 83%
- residual activity [35]: 96.6%
- residual activity [36]: 100%
- residual activity [37]: 101%
- residual activity [38]: 88.3%
- residual activity [39]: 98.9%
- residual activity [40]: 97%
